# Experimental data as given in article PMC6348443 (Journal of Medicinal Chemistry, 2018).
# Structures can show the parent of a compound that is named as a salt. Where two headings read alike, the source gives them in different places.
# Columns and labels:
# DOR [1] = target: T1, DOR (Homo sapiens, UniProt P41143); experiment: [35S]GTPγS binding assay, CHO-hDOR membranes; assay type: biochemical; conditions: for EC50: [35S]GTPγS, CHO human DOR membranes; for Emax: relative to reference full agonist DPDPE, read-out: DOR % stim.; for increased agonist potency at DOR vs MOR: [35S]GTPγS EC50
# T1 construct: host or cells: CHO (CHO-hDOR)
# Procedure: (§1) Efficacies are presented as percentage stimulation relative to the standard full agonists, [D-Ala^2,N-Me-Phe4,Gly-ol^5]enkephalin (DAMGO for MOR),[53] [D-Pen^2,D-Pen^5]enkephalin (DPDPE for DOR)[54] and N-methyl-2-phenyl-N-[(5R,7S,8S)-7-(pyrrolidin-1-yl)-1-oxaspiro[4.5]dec-8-yl]acetamide (U69,593 for KOR).[55]
# (§2) Membranes from CHO cells expressing human opioid receptors were prepared in 50 mM Tris-HCl buffer (pH 7.7) according to a previously described procedure.[64] Cells expressing human opioid receptors grown at confluence were removed from the culture plates by scraping, homogenized in 50 mM Tris buffer (pH 7.7), using a Polytron homogenizer, then centrifuged once and washed by an additional centrifugation at 27 000g for 15 min, at 4 °C. The final pellet was resuspended in Tris buffer and stored at −80 °C until use. Protein content of brain and cell membrane preparation homogenates was determined by the method of Bradford using bovine serum albumin as the standard.[65]
# (§3) Binding of [^35S]GTPγS to membranes from CHO cells stably expressing the human opioid receptors was conducted according to the published procedures.[49],[64] Cell membranes (5–10 μg) in 20 mM HEPES, 10 mM MgCl2, and 100 mM NaCl (pH 7.4) were incubated with 0.05 nM [^35S]GTPγS, 10 μM GDP, and various concentrations of test compound in a final volume of 1 mL, for 60 min at 25 °C. Nonspecific binding was determined using 10 μM GTPγS, and the basal binding was determined in the absence of test ligand. Samples are filtered over glass Whatman glass GF/B fiber filters and counted as described for binding assays. All experiments were performed in duplicate and repeated at least three times.
# (§4) Data were analyzed and graphically processed using the GraphPad Prism 5.0 Software (GraphPad Prism Software Inc., San Diego, CA). For in vitro assays, inhibition constant (Ki in nM), potency (EC50 in nM), and efficacy (% stimulation) values were determined from concentration–response curves by nonlinear regression analysis. The Ki values were determined by the method of Cheng and Prusoff.[66] In the [^35S]GTPγS binding assays, efficacy was determined relative to the reference full opioid agonists, DAMGO (MOR), DPDPE (DOR), and U69,593 (KOR). In vitro data are presented as mean ± SEM of three to four independent experiments each performed in duplicate. […] Each experimental group included six to seven mice. Data were statistically evaluated using one-way ANOVA with Tukey’s post hoc test for multiple comparisons with significance set at P < 0.05.
# KOR [2] = target: T2, KOR (Homo sapiens, UniProt P41145); experiment: [35S]GTPγS binding assay, CHO-hKOR membranes; assay type: biochemical; conditions: for EC50: [35S]GTPγS, CHO human KOR membranes, read-out: KOR EC50; for Emax: relative to reference full agonist U69,593, read-out: KOR % stim.; for functional profile at KOR (full/partial agonist): partial agonist <85% of the response to U69,593
# T2 construct: host or cells: CHO (CHO-hKOR)
# Procedure: as §1, §2, §3, §4
# male CD1 mice = experiment: acetic acid-induced writhing assay after sc administration; assay type: in vivo, mouse; conditions: for ED50: Mus musculus, 0.5 h, read-out: ED50 (95% CI), mice, sc, inhibition of writhing 30 min after drug administration; for ED50 (95% CI): mice, inhibition of writhing 30 min after drug administration
# Procedure: Solutions of test compounds were prepared in sterile physiological 0.9% saline and further diluted to working doses in saline solution. Test compounds or saline (control) were administered by sc route in a volume of 10 μL/1 g of body weight. All doses are expressed in terms of salts. Separate groups of mice received the respective dose of compound, and individual mice were only used once for behavioral testing.
# Writhing was induced in male CD1 mice by ip injection of a 0.6% acetic acid aqueous solution as described previously.[48],[62] Groups of mice were administered sc different doses of test compound or saline (control), and 5 min prior to testing (25 min after drug or saline), each animal received an ip injection of acetic acid solution. Each mouse was placed in individual transparent Plexiglas chambers, and the number of writhes was counted during a 10 min observation period. […] For the antagonism study, naloxone methiodide was sc co-administered with the respective opioid agonist, and writhing was assessed as described above.
# as §4
# MOR [3] = target: T3, MOR (Homo sapiens, UniProt P35372); experiment: [35S]GTPγS binding assay, CHO-hMOR membranes; assay type: biochemical; conditions: for Emax: relative to reference full agonist DAMGO, read-out: MOR % stim.
# T3 construct: host or cells: CHO (CHO-hMOR)
# Procedure: as §1, §2, §3, §4
# MOR [4] = target: T4, MOR (Rattus norvegicus, UniProt P33535); experiment: competition radioligand binding, rat brain membranes, [3H]DAMGO; conditions: rat brain membranes; read-out: opioid receptor binding Ki MOR
# T4 construct: Membranes were prepared from Sprague-Dawley rat brains or guinea-pig brains according to the described procedures; tissue Labortierkunde und Laborgenetik, Medizinische Universität Wien; host or cells: Sprague-Dawley rat brain without cerebella
# Procedure: (§5) Competition binding assays using rat brain (MOR and DOR) and guinea-pig brain (KOR) membranes (Table 1) were performed according to published procedures.[44],[49] […] In addition, we have assessed binding at the human opioid receptors stably transfected in Chinese hamster ovary (CHO) cells (Table S1).
# (§6) Membranes were prepared from Sprague-Dawley rat brains or guinea-pig brains according to the described procedures.[44],[45] Brains without cerebella were homogenized on ice in 5 vol/wt of ice-cold 50 mM Tris-HCl buffer (pH 7.4) and diluted in 30 vol/wt of the same buffer. After centrifugation at 40 000g for 20 min at 4 °C, the pellets were resuspended in 30 vol/wt of 50 mM Tris-HCl buffer (pH 7.4) and incubated at 37 °C for 30 min. The centrifugation step described above was repeated, and the final pellets were resuspended in 5 vol/wt of 50 mM Tris-HCl buffer (pH 7.4) containing 0.32 M sucrose and stored at −80 °C until use.
# (§7) Rat brain membranes were incubated with either [^3H]DAMGO (1 nM, 45 min, 35 °C) or [^3H][Ile^5,6]deltorphin II (0.5 nM, 45 min, 35 °C) for labeling MOR or DOR receptors, respectively. Guinea-pig brain membranes were incubated with [^3H]U69,593 (1 nM, 30 min, 30 °C) for labeling KOR. Binding assays with CHO cell membranes were conducted at 25 °C for 60 min using [^3H]DAMGO (1 nM) or [^3H]diprenorphine (0.2 nM) for labeling MOR or DOR, respectively. Nonspecific binding was determined using 10 μM naloxone (rodent brain) or 1–10 μM of the unlabeled counterpart of each radioligand (CHO cells). Reactions were terminated by rapid filtration through Whatman glass fiber GF/C filters. Filters were washed three times with 5 mL of ice-cold 50 mM Tris-HCl buffer (pH 7.4) using a Brandel M24R cell harvester (Gaithersburg, MD). Radioactivity retained on the filters was counted by liquid scintillation counting using a Beckman Coulter LS6500 (Beckman Coulter Inc., Fullerton, CA). All binding experiments were performed in duplicate and repeated at least three times.
# as §4
# DOR [5] = target: T5, DOR (Rattus norvegicus, UniProt P33533); experiment: competition radioligand binding, rat brain membranes, [3H][Ile5,6]deltorphin II; conditions: rat brain membranes; read-out: opioid receptor binding Ki DOR
# T5 construct: Membranes were prepared from Sprague-Dawley rat brains or guinea-pig brains according to the described procedures; tissue Labortierkunde und Laborgenetik, Medizinische Universität Wien; host or cells: Sprague-Dawley rat brain without cerebella
# Procedure: as §5, §6, §7, §4
# KOR [6] = target: T6, KOR (Cavia porcellus, UniProt P41144); experiment: competition radioligand binding, guinea-pig brain membranes, [3H]U69,593; conditions: guinea-pig brain membranes; read-out: opioid receptor binding Ki KOR
# T6 construct: Membranes were prepared from Sprague-Dawley rat brains or guinea-pig brains according to the described procedures; tissue Labortierkunde und Laborgenetik, Medizinische Universität Wien; host or cells: guinea-pig brain without cerebella
# Procedure: as §5, §6, §7, §4
# [7] = [35S]GTPγS, CHO human MOR membranes, read-out: MOR EC50
SMILES,EC50 (DOR [1]),Emax (DOR [1]),EC50 (KOR [2]),Emax (KOR [2]),ED50 (male CD1 mice),EC50 (MOR [3]; [7]),Emax (MOR [3]),functional profile at KOR (full/partial agonist) (KOR [2]),Ki (MOR [4]),Ki (DOR [5]),Ki (KOR [6]),increased agonist potency at DOR vs MOR (DOR [1]),EC50 (MOR [3]),ED50 (95% CI) (male CD1 mice)
"CO[C@@]12CCC(=O)[C@@H]3Oc4c(O)ccc5c4[C@@]31CCN(C)[C@@H]2C5 [Compound 1, 14-O-methyloxymorphone, reference compound]",37.3 ± 8.5 nM,106 ± 1%,116 ± 31 nM,77 ± 5%,0.00326 mg/kg,–,–,–,–,–,–,–,–,–
CN1CC[C@]23c4c5ccc(O)c4O[C@H]2[C@@H](NCC(=O)O)CC[C@@]3(OCCCc2ccccc2)[C@H]1C5 [Compound 5a],–,–,–,–,0.0361 mg/kg,–,–,–,–,–,–,–,–,–
CN1CC[C@]23c4c5ccc(O)c4O[C@H]2[C@H](NCC(=O)O)CC[C@@]3(OCCCc2ccccc2)[C@H]1C5 [Compound 5b],–,–,–,–,0.0416 mg/kg,–,–,–,–,–,–,–,–,–
"CO[C@@]12CC[C@H](N[C@@H](CO)C(=O)O)[C@@H]3Oc4c(O)ccc5c4[C@@]31CCN(C)[C@@H]2C5 [Compound 6a, (2S)-2-[(4,5α-Epoxy-3-hydroxy-14β-methoxy-17-methylmorphinan-6α-yl)amino]-3-hydroxypropionic Acid Dihydrochloride]",13.9 ± 1.5 nM,101 ± 2%,1210 ± 200 nM,44 ± 5.2%,0.0321 mg/kg,1.6 ± 0.59 nM,87 ± 5%,–,–,–,–,–,–,–
"CO[C@@]12CC[C@@H](N[C@@H](CO)C(=O)O)[C@@H]3Oc4c(O)ccc5c4[C@@]31CCN(C)[C@@H]2C5 [Compound 6b, (2S)-2-[(4,5α-Epoxy-3-hydroxy-14β-methoxy-17-methylmorphinan-6β-yl)amino]-3-hydroxypropionic Acid Dihydrochloride]",6.98 ± 4.24 nM,98 ± 1%,201 ± 116 nM,88 ± 2%,–,3.56 ± 0.76 nM,101 ± 9%,full agonists,–,–,–,–,–,–
"CO[C@@]12CC[C@H](N[C@H](C(=O)O)C(C)C)[C@@H]3Oc4c(O)ccc5c4[C@@]31CCN(C)[C@@H]2C5 [Compound 7a, (2S)-2-[(4,5α-Epoxy-3-hydroxy-14β-methoxy-17-methylmorphinan-6α-yl)amino]-3-methylbutyric Acid Dihydrochloride]",33.8 ± 8.9 nM,91 ± 2%,462 ± 126 nM,51 ± 0.5%,–,10.5 ± 4 nM,95 ± 8%,partial agonist,3.16 ± 0.25 nM,3.91 ± 0.3 nM,325 ± 19 nM,–,–,–
"CO[C@@]12CC[C@@H](N[C@@H](Cc3ccc(O)cc3)C(=O)O)[C@@H]3Oc4c(O)ccc5c4[C@@]31CCN(C)[C@@H]2C5.Cl.Cl [Compound 9b, (2S)-2-[(4,5α-Epoxy-3-hydroxy-14β-methoxy-17-methylmorphinan-6β-yl)amino]-3-(4-hydroxyphenyl)propionic Acid Dihydrochloride]",6.23 ± 1.03 nM,95 ± 0.8%,774 ± 57 nM,60 ± 3%,–,24.7 ± 9.8 nM,93 ± 7%,–,3.2 ± 0.55 nM,3.89 ± 0.64 nM,186 ± 33 nM,2–4 times,–,–
"CO[C@@]12CC[C@H](N[C@@H](CC(N)=O)C(=O)O)[C@@H]3Oc4c(O)ccc5c4[C@@]31CCN(C)[C@@H]2C5 [Compound 11a, (2S)-3-Carbamoyl-2-[(4,5α-epoxy-3-hydroxy-14β-methoxy-17-methylmorphinan-6α-yl)amino]propionic Acid Dihydrochloride]",9.78 ± 3.32 nM,106 ± 6%,81.7 ± 12.3 nM,67 ± 12%,< 0.02 mg/kg,0.83 ± 0.17 nM,99 ± 0.2%,–,–,–,–,–,< 1 nM,15.2 (6.89–33.3) μg/kg
"CO[C@@]12CC[C@@H](N[C@@H](CC(N)=O)C(=O)O)[C@@H]3Oc4c(O)ccc5c4[C@@]31CCN(C)[C@@H]2C5 [Compound 11b, (2S)-3-Carbamoyl-2-[(4,5α-epoxy-3-hydroxy-14β-methoxy-17-methylmorphinan-6β-yl)amino]propionic Acid Dihydrochloride]",3.18 ± 0.93 nM,88 ± 5%,923 ± 11 nM,71 ± 9%,–,2.04 ± 0.44 nM,96 ± 14%,–,–,–,–,–,–,–
"CO[C@@]12CC[C@H](N[C@@H](CCC(N)=O)C(=O)O)[C@@H]3Oc4c(O)ccc5c4[C@@]31CCN(C)[C@@H]2C5 [Compound 12a, (2S)-4-Carbamoyl-2-[(4,5α-epoxy-3-hydroxy-14β-methoxy-17-methylmorphinan-6α-yl)amino]butanoic Acid Dihydrochloride]",7.8 ± 3.61 nM,104 ± 10%,185 ± 30 nM,70 ± 3%,–,2.27 ± 0.11 nM,90 ± 8%,–,–,–,–,–,–,–
"CO[C@@]12CC[C@@H](N[C@@H](CCC(N)=O)C(=O)O)[C@@H]3Oc4c(O)ccc5c4[C@@]31CCN(C)[C@@H]2C5.Cl.Cl [Compound 12b, (2S)-4-Carbamoyl-2-[(4,5α-epoxy-3-hydroxy-14β-methoxy-17-methylmorphinan-6β-yl)amino]butanoic Acid Dihydrochloride]",3.96 ± 0.07 nM,103 ± 9%,1410 ± 418 nM,63 ± 17%,–,9.54 ± 1.15 nM,98 ± 4%,–,–,–,–,2–4 times,–,–
"CN1CC[C@]23c4c5ccc(O)c4O[C@H]2[C@@H](O)C=C[C@H]3[C@H]1C5 [morphine, reference compound]",–,–,–,–,–,–,–,–,–,–,–,–,–,437 (249–768) μg/kg
